The record followed here is patent US9737073B2, “Herbicidal weed control from combinations of fluroxypyr and ALS inhibitors” (Dow AgroSciences LLC, priority 2014, dated 2017).

Holding throughout (type): in vivo
The test system of assay [1] is Abutilon theophrasti (velvetleaf, ABUTH). Nature of the assay: Postemergence herbicidal weed control, fluroxypyr-meptyl and chlorimuron-ethyl, field trials (Table 3). As to the method: (§1) Seeds of the desired test plant species were planted in a peat-based potting soil, Metro-Mix 360® in plastic pots with a surface area of 128 square centimeters (cm^2). Metro-Mix 360® consists of formulated Canadian sphagnum peat moss, coarse perlite, bark ash, a starter nutrient charge (with gypsum), a slow-release nitrogen and dolomitic limestone. The plants were grown for 7-19 days in a greenhouse with an approximate 14-hour (h) photoperiod which was maintained at about 29° C. during the day and 26° C. during the night. Nutrients and water were added on a regular basis and supplemental lighting was provided with overhead metal halide 1000-Watt lamps as necessary. The plants were treated with postemergence foliar applications when they reached the third to fourth true leaf stage. All treatments were applied using a randomized complete block trial design, with 4 replications per treatment.
(§2) Treatments consisted of the compounds as listed in Tables 1 to 4, each compound applied alone and in combination. Commercially formulated products of fluroxypyr-meptyl (STARANE™, 333 grams acid equivalent per liter (g ae/L) EC), diclosulam (SPIDER® 84WG), cloransulam-methyl (FIRSTRATE™ 84WG), chlorimuron-ethyl (CLASSIC® 25WG) and thifensulfuron-methyl (HARMONY® 50SG). Formulated amounts of fluroxypyr-meptyl, diclosulam, cloransulam-methyl, chlorimuron-ethyl and thifensulfuron-methyl were placed in 60 milliliter (mL) glass vials and dissolved in a volume of 30 or 60 mL of a water solution containing Agri-dex crop oil concentrate in a 1% volume per volume (v/v) ratio. Compound requirements are based upon either a 30- or a 60-mL application volume at a rate of 200 liters per hectare (L/ha). Spray solutions of the mixtures were prepared by adding the stock solutions to the appropriate amount of dilution solution to form either a 30- or a 60-mL spray solution with active ingredients in single and two-way combinations. Formulated compounds were applied to the plant material with an overhead Generation III Research Sprayer manufactured by DeVries Manufacturing in Hollandale, Minn., USA. The track sprayer was equipped with an 8003E nozzle calibrated to deliver 200 L/ha at a spray height of 18 inches (43 centimeters (cm)) above average plant canopy.
(§3) The treated plants and untreated control plants were placed in a greenhouse as described above and watered by sub-irrigation to prevent wash-off of the test compounds.
(§4) Treatments were rated at 7 to 21 days after application (DAA) as compared to the untreated control plants. Visual weed control was scored on a scale of 0 to 100 percent where 0 corresponds to no injury and 100 corresponds to complete kill.
(§5) Field trials were conducted using standard herbicide small plot research methodology. Plots varied from 3×3.3 meter (m) to 4.5×10 m (width×length) with 4 replicates per treatment. The crops used in the field trials were grown using normal cultural practices for land preparation, fertilization, seeding and maintenance to ensure good growth of the crop and the weeds.
(§6) All treatments in the field trials were applied using either pressurized air or carbon dioxide (CO2) backpack or bicycle sprayers calibrated to apply 100-187 L/ha spray volume. Flat Fan spray nozzles were used in all trials, with water as the diluent applied at 275-300 kilopascals (kPa). Weed sizes at application ranged from 10 to 40 cm tall. Commercially available products of fluroxypyr-meptyl (STARANE™, 180 and 333 g ae/L EC), diclosulam (SPIDER® 84WG), and thifensulfuron-methyl (HARMONY® 75WG) were mixed in water at appropriately formulated product rates to achieve the desired rates based on a unit area of application (hectare) to achieve the desired rates as shown. No adjuvants were tank-mixed with any treatments applied in the field trials. Treatments were rated at 14-26 days after application as compared to the untreated control plants. […]

Assay [2] has as its system Amaranthus rudis Sauer (common waterhemp, AMATA). The description is as above. The procedure:
as §1, §2, §3, §4, §5, §6

Assay [3] has as its system Commelina benghalensis (tropical spiderwort, COMBE). Nature of the assay: Postemergence herbicidal weed control, fluroxypyr-meptyl and diclosulam, greenhouse trials (Table 1). The procedure:
as §5
(§7) All treatments in the field trials were applied using either pressurized air or carbon dioxide (CO2) backpack or bicycle sprayers calibrated to apply 100-187 L/ha spray volume. Flat Fan spray nozzles were used in all trials, with water as the diluent applied at 275-300 kilopascals (kPa). Weed sizes at application ranged from 10 to 40 cm tall. Commercially available products of fluroxypyr-meptyl (STARANE™, 180 and 333 g ae/L EC), diclosulam (SPIDER® 84WG), and thifensulfuron-methyl (HARMONY® 75WG) were mixed in water at appropriately formulated product rates to achieve the desired rates based on a unit area of application (hectare) to achieve the desired rates as shown. No adjuvants were tank-mixed with any treatments applied in the field trials. Treatments were rated at 14-26 days after application as compared to the untreated control plants. Visual weed control was scored on a scale of 0 to 100 percent where 0 corresponds to no injury and 100 corresponds to complete kill.
(§8) The treated plots and control plots were rated blind at various intervals after application. Ratings were reported on a Percent (%) Visual Control basis, where 0 corresponds to no visual effect/weed control and 100 corresponds to complete kill of the target weeds.
(§9) Colby's equation was used to determine the herbicidal effects expected from the mixtures (Colby, S. R. Calculation of the synergistic and antagonistic response of herbicide combinations. Weeds 196715, 20-22). A t-test (alpha=0.05) between Colby predictions and observed combinations was used to test for significant differences indicating synergy or antagonism. The results presented in the Tables were significant according to the described criteria.
(§10) The following equation was used to calculate the expected activity of mixtures containing two active ingredients, A and B: Expected=A+B−(A×B/100) • A=observed efficacy of active ingredient A at the same concentration as used in the mixture; • B=observed efficacy of active ingredient B at the same concentration as used in the mixture.

Assay [4] relates to Chenopodium album (common lambsquarters, CHEAL). Described as above. The procedure:
as §1, §2, §3, §4, §9, §10

Assay [5] deals with Abutilon theophrasti (velvetleaf, ABUTH). Described as above. The procedure:
as §1, §2, §3, §4, §9, §10

In assay [6] the test system is Amaranthus rudis Sauer (common waterhemp, AMATA). Described as above. The procedure: as §1, §2, §3, §4, §9, §10
In assay [7] the test system is Sida cordifolia L. (heartleaf sida, SIDCO). The assay is described as above. Particulars: 14DAA1, 25.2 g ai/ha. As to the method: as §1
Treatments consisted of the compounds as listed in Tables 1 to 4, each compound applied alone and in combination. […]
Treatments were rated at 7 to 21 days after application (DAA) as compared to the untreated control plants. Visual weed control was scored on a scale of 0 to 100 percent where 0 corresponds to no injury and 100 corresponds to complete kill. […]

The subject of assay [8] is Abutilon theophrasti (velvetleaf, ABUTH). Briefly: Postemergence herbicidal weed control, fluroxypyr-meptyl and thifensulfuron-methyl, field trials (Table 4). The procedure:
as §1, §2, §3, §4, §5
(§11) All treatments in the field trials were applied using either pressurized air or carbon dioxide (CO2) backpack or bicycle sprayers calibrated to apply 100-187 L/ha spray volume. Flat Fan spray nozzles were used in all trials, with water as the diluent applied at 275-300 kilopascals (kPa). Weed sizes at application ranged from 10 to 40 cm tall. […]

Assay [9] concerns Amaranthus palmeri S. Wats. (Palmer amaranth, AMAPA). The assay is described as above. Conditions: 7DAA1, 2.2 g ai/ha. As to the method:
as §1, §2, §3, §4, §5, §11

For assay [10], the system named is Chenopodium album (common lambsquarters, CHEAL). The description is as above. Conditions: 21DAA1, 13.0 g ai/ha. The procedure:
as §5, §7, §8, §9, §10

Assay [11] concerns Polygonum convolvulus L. (wild buckwheat, POLCO). The assay is described as above. Conditions: 21DAA1, 13.0 g ai/ha. As to the method: as §5, §7, §8, §9, §10
For assay [12], the system named is Amaranthus retroflexus L. (redroot pigweed, AMARE). The assay is described as above. Conditions: 21DAA1, 13.0 g ai/ha. The procedure:
as §5, §7, §8, §9, §10

Assay [13] relates to Abutilon theophrasti (velvetleaf, ABUTH). Nature of the assay: Postemergence herbicidal weed control, fluroxypyr-meptyl and cloransulam-methyl, field trials (Table 2). The procedure:
as §1, §2, §3, §4, §5, §6

Assay [14] deals with Amaranthus rudis Sauer (common waterhemp, AMATA). Described as above. As to the method: as §1, §2, §3, §4, §5, §6
Assay [15] deals with Chenopodium album (common lambsquarters, CHEAL). Described as above. The procedure: as §1, §2, §3, §4, §5
as §7, with “Treatments were rated at 14-26 days after application as compared to the untreated control plants.” left out, “kill. […]” for “kill.”

For `CCOC(=O)c1ccccc1S(=O)(=O)NC(=O)Nc1nc(Cl)cc(OC)n1` [Chlorimuron-ethyl, ethyl 2-[[[[(4-chloro-6-methoxy-2-pyrimidinyl)amino]carbonyl]amino]-sulfonyl]benzoate], the “Chlorimuron-ethyl Mean % weed control” value came to 56.3% in assay [1] (14DAA1, 1.1 g ai/ha); 62.5% in assay [1] (14DAA1, 2.2 g ai/ha); 41.3% in assay [2] (7DAA1, 8.8 g ai/ha); 28.8% in assay [2] (14DAA1, 8.8 g ai/ha).

For `CCOc1nc(F)cc2nc(S(=O)(=O)Nc3c(Cl)cccc3Cl)nn12` [Diclosulam, N-(2,6-dichlorophenyl)-5-ethoxy-7-fluoro[1,2,4]triazolo[1,5-c]pyrimidine-2-sulfonamide], the “Diclosulam Mean % weed control” value in assay [3] (14DAA1, 25.2 g ai/ha) came to 41.3%; in [3] (26DAA1, 25.2 g ai/ha), 17.5%; in assay [4] (8DAA1, 8.8 g ai/ha), 38.3%; in [4] (14DAA1, 2.2 g ai/ha), 3.3%; in assay [4] (14DAA1, 8.8 g ai/ha) it was 21.7%; in assay [4] (21DAA1, 2.2 g ai/ha), 5.0%. The “Diclosulam Mean % weed control” value in assay [4] (21DAA1, 4.4 g ai/ha) came to 16.7%; in assay [4] (21DAA1, 8.8 g ai/ha) it was 31.7%; in assay [5] (14DAA1, 1.1 g ai/ha), 28.8%; in assay [5] (21DAA1, 1.1 g ai/ha), 30.0%; in [6] (8DAA1, 8.8 g ai/ha), 51.3%; in assay [6] (14DAA1, 4.4 g ai/ha), 28.8%. The “Diclosulam Mean % weed control” value is 27.5% in assay [6] (14DAA1, 8.8 g ai/ha); 25.0% in assay [6] (21DAA1, 4.4 g ai/ha); 28.8% in [6] (21DAA1, 8.8 g ai/ha); 23.3% in [7].

For the compound `COC(=O)c1sccc1S(=O)(=O)NC(=O)Nc1nc(C)nc(OC)n1` [Thifensulfuron-methyl, methyl 3-[[[[(4-methoxy-6-methyl-1,3,5-triazin-2-yl)amino]carbonyl]amino]sulfonyl]-2-thiophenecarboxylate], the “Thifensulfuron-methyl Mean % weed control” value in assay [8] (14DAA1, 0.6 g ai/ha) is 56.3%; in [8] (14DAA1, 1.1 g ai/ha), 73.8%; in assay [9] it was 22.5%; in assay [10] it was 90.0%; in assay [11], 90.0%; in [12], 90.0%.

`CCOc1nc(F)cc2nc(S(=O)(=O)Nc3c(Cl)cccc3C(=O)OC)nn12` [Cloransulam-methyl, methyl 3-chloro-2-[[(5-ethoxy-7-fluoro[1,2,4]triazolo[1,5-c]pyrimidin-2-yl)sulfonyl]amino]benzoate]: the “Cloransulam-methyl Mean % weed control” value in [13] (14DAA1, 1.1 g ai/ha) is listed as 38.3%; in assay [13] (14DAA1, 4.4 g ai/ha), 70.0%; in assay [13] (21DAA1, 1.1 g ai/ha), 40.0%; in assay [13] (21DAA1, 4.4 g ai/ha), 70.0%; in assay [14] (8DAA1, 4.4 g ai/ha) it was 58.8%; in assay [14] (14DAA1, 4.4 g ai/ha), 38.8%. For the same compound, the “Cloransulam-methyl Mean % weed control” value stood at 37.5% in assay [14] (21DAA1, 4.4 g ai/ha); 35.0% in [15] (8DAA1, 4.4 g ai/ha); 16.7% in assay [15] (14DAA1, 1.1 g ai/ha); 11.7% in [15] (14DAA1, 4.4 g ai/ha); 8.3% in assay [15] (21DAA1, 1.1 g ai/ha); 11.0% in assay [15] (21DAA1, 4.4 g ai/ha). For the same compound, the “Cloransulam-methyl Mean % weed control” value in assay [15] (21DAA1, 8.8 g ai/ha) was found to be 10.0%.
